Calls of active or inactive are those of the source. The calls are words filed in the database; no cut-off is given here.
What was measured:
dengue virus type 2 [1] = test: Antiviral activity against DENV-2 New Guinea C infected in human Huh-7 cells assessed as reduction in virus induced cytopathic effect incubated for 6 days by visual analysis; format: functional, organism-based; conditions: Huh-7, 144 h
dengue virus type 2 [2] = test: Antiviral activity against DENV-2 New Guinea C infected in human Huh-7 cells assessed as reduction in virus induced cytopathic effect incubated for 6 days by neutral red dye based spectrophotometric analysis; format: functional, organism-based; conditions: Huh-7, 144 h
[3] = Cytotoxicity against human Huh-7 cells assessed as reduction in cell viability by visual analysis; format: toxicity, cell-based
enterovirus D68 [4] = test: Antiviral activity against EV-68 US/KY/14-18953 infected in human RD cells assessed as reduction in virus induced cytopathic effect incubated for 3 days by visual analysis; format: functional, organism-based; conditions: Enterovirus D, US/KY/14-18953, RD, 72 h
enterovirus D68 [5] = test: Antiviral activity against EV-68 US/KY/14-18953 infected in human RD cells assessed as reduction in virus induced cytopathic effect incubated for 3 days by neutral red dye based spectrophotometric analysis; format: functional, organism-based; conditions: Enterovirus D, US/KY/14-18953, RD, 72 h
[6] = Cytotoxicity against human RD cells assessed as reduction in cell viability by visual analysis; format: toxicity, cell-based
[7] = Cytotoxicity against African green monkey Vero 76 cells assessed as reduction in cell viability by neutral red dye based spectrophotometric analysis; format: toxicity; conditions: chlorocebus sabaeus
Measles morbillivirus [8] = test: Antiviral activity against MeV CC strain infected in African green monkey Vero 76 cells assessed as reduction in virus induced cytopathic effect incubated for 6 days by visual analysis; format: functional, organism-based; conditions: Vero 76, 144 h
Measles morbillivirus [9] = test: Antiviral activity against MeV CC strain infected in African green monkey Vero 76 cells assessed as reduction in virus induced cytopathic effect incubated for 6 days by neutral red dye based spectrophotometric analysis; format: functional, organism-based; conditions: Vero 76, 144 h
[10] = Cytotoxicity against African green monkey Vero 76 cells assessed as reduction in cell viability by visual analysis; format: toxicity, cell-based; conditions: chlorocebus sabaeus
[11] = Selectivity index, ratio of CC50 for cytotoxicity against human RD cells to EC50 for antiviral activity against EV-68 US/KY/14-18953 infected in human RD cells by visual analysis; format: toxicity, cell-based; conditions: read-out: Ratio CC50/EC50
[12] = Selectivity index, ratio of CC50 for cytotoxicity against human RD cells to EC50 for antiviral activity against EV-68 US/KY/14-18953 infected in human RD cells by neutral red dye based spectrophotometric analysis; format: toxicity, cell-based; conditions: read-out: Ratio CC50/EC50
[13] = Selectivity index, ratio of CC50 for cytotoxicity against African green monkey Vero 76 cells to EC50 for antiviral activity against MeV CC strain infected in African green monkey Vero 76 cells by visual analysis; format: toxicity, cell-based; conditions: read-out: Ratio CC50/EC50
[14] = Selectivity index, ratio of CC50 for cytotoxicity against African green monkey Vero 76 cells to EC50 for antiviral activity against MeV CC strain infected in African green monkey Vero 76 cells by neutral red dye based spectrophotometric analysis; format: toxicity, cell-based; conditions: read-out: Ratio CC50/EC50
[15] = Cytotoxicity against human Huh-7 cells assessed as reduction in cell viability by neutral red dye based spectrophotometric analysis; format: toxicity
[16] = Cytotoxicity against human RD cells assessed as reduction in cell viability by neutral red dye based spectrophotometric analysis; format: toxicity
Influenza A virus = test: Antiviral activity against influenza A virus H1N1 California/07/2009 infected in dog MDCK cells assessed as reduction in virus induced cytopathic effect incubated for 6 days by neutral red dye based spectrophotometric analysis; format: functional, organism-based; conditions: time 6.0 day
[17] = system: Middle East respiratory syndrome-related coronavirus; test: Antiviral activity against MERS-CoV EMC strain infected in […] cells assessed as reduction in virus induced cytopathic effect incubated for 5 days by neutral red dye based spectrophotometric analysis; format: functional, organism-based; conditions: time 5.0 day
[18] = system: Respiratory syncytial virus; test: Antiviral activity against RSV A2 strain infected in vervet monkey MA-104 cells assessed as reduction in virus induced cytopathic effect incubated for 6 days by neutral red dye based spectrophotometric analysis; format: functional, organism-based; conditions: time 6.0 day
Tacaribe virus = test: Antiviral activity against TCRV TRVL 11573 strain infected in African green monkey Vero 76 cells assessed as reduction in virus induced cytopathic effect incubated for 7 days by neutral red dye based spectrophotometric analysis; format: functional, organism-based; conditions: Mammarenavirus tacaribeense, time 7.0 day
Herpesviridae sp. = test: Antiviral activity against HSV; format: functional, organism-based
Hepatitis B virus = test: Antiviral activity against Hepatitis B virus; format: functional, organism-based

Structure (SMILES)	EC50 (dengue virus type 2 [1]) [µM]	EC50 (dengue virus type 2 [2]) [µM]	CC50 [3] [µM]	EC50 (enterovirus D68 [4]) [µM]	EC50 (enterovirus D68 [5]) [µM]	CC50 [6] [µM]	CC50 [7] [µM]	EC50 (Measles morbillivirus [8]) [µM]	EC50 (Measles morbillivirus [9]) [µM]	CC50 [10] [µM]	selectivity ratio [13]	selectivity ratio [14]	CC50 [15] [µM]	CC50 [16] [µM]	Activity (Influenza A virus)	Activity [17]	Activity [18]	Activity (Tacaribe virus)	Activity (Herpesviridae sp.)	Activity (Hepatitis B virus)	other results
Nc1ncnc2c1ncn2[C@@H]1O[C@H](CO)[C@H](OCP(=O)(O)O)[C@H]1O	> 100	> 100	> 100	16	20	> 100	> 100	12	14	> 100	> 8.3	> 7.1	> 100	> 100	inactive	inactive	inactive	inactive	inactive	inactive	selectivity ratio [11]: > 6.3; selectivity ratio [12]: > 5
NC(=O)c1ncn([C@@H]2O[C@H](CO)[C@@H](O)[C@H]2O)n1															inactive		inactive	inactive			
O=c1ccn([C@@H]2O[C@H](CO)[C@H](OCP(=O)(O)O)[C@H]2O)c(=O)[nH]1	> 100	> 84	> 100	> 100	> 100	> 100	> 100	72	82	> 100	> 1.4	> 1.2	> 100	> 100	inactive	inactive	inactive	inactive	inactive	inactive	
Nc1nc2c(ncn2[C@@H]2O[C@H](CO)[C@H](OCP(=O)(O)O)[C@H]2O)c(=O)[nH]1	> 100	> 100	> 100	47	40	73	> 100	> 100	> 100	> 100			> 100	> 100	inactive	inactive	inactive	inactive	inactive	inactive	selectivity ratio [11]: 1.6; selectivity ratio [12]: > 2.5
Nc1ccn([C@@H]2O[C@H](CO)[C@H](OCP(=O)(O)O)[C@H]2O)c(=O)n1	> 100	> 100	> 100	> 100	> 100	> 100	> 100	72	49	> 100	> 1.4	> 2	> 100	> 100	inactive	inactive	inactive	inactive	inactive	inactive	
CC(C)S(=O)(=O)n1c(N)nc2ccc(/C(=N/O)c3ccccc3)cc21 [ENVIROXIME]						10								5.5							
O=c1[nH]cnc2c1ncn2[C@@H]1O[C@H](CO)[C@H](OCP(=O)(O)O)[C@H]1O	> 100	> 100	> 100	46	89	> 100	> 100	> 100	> 100	> 100			> 100	> 100	inactive	inactive	inactive	inactive	inactive	inactive	selectivity ratio [11]: > 2.2; selectivity ratio [12]: > 1.1
Nc1ccn([C@@H]2O[C@H](CO)[C@@H](O)[C@H]2F)c(=O)n1							> 100	0.7	0.95	> 100	> 140	> 110									

Reference: ChEMBL document CHEMBL5321231, “Synthesis, antiviral activity, and computational study of β-d-xylofuranosyl nucleoside phosphonates” (Eur J Med Chem, 2023)
